≈ marks a conversion by molar mass, not a printed value. Where two headings read alike, the source gives them in different places.
Assays:
E. histolytica HM1:IMSS = experiment: ATP-bioluminescence growth/survival EC50 assay, E. histolytica; format: cell-based, Entamoeba histolytica; conditions: Entamoeba histolytica
Protocol: (§1) Compounds were screened for antiparasitic activity using an ATP-bioluminescence based assay for cell growth and survival, [24]. […] Viable cell numbers were determined in triplicate using the CellTiter-Glo Luminescent Cell Viability Assay.

G. lamblia WB (MtzS) = experiment: ATP-bioluminescence growth/survival EC50 assay, G. lamblia WB; conditions: for EC50: Giardia duodenalis; for S.I (CC50/EC50): average cytotoxicity against HEK293 and HepG2 / G. lamblia WB activity
Protocol: as §1

T. vaginalis F1623 = experiment: ATP-bioluminescence growth/survival EC50 assay, T. vaginalis; format: cell-based, Trichomonas vaginalis
Protocol: as §1

[1] = Resazurin cytotoxicity assay, HepG2; format: cell-based, Human; conditions: human, 24 h, highest concentration 100 μM, n = 3, read-out: CC50 Hep G2
Protocol: (§2) Human HEK293 and HepG2 cells were seeded at 3000 and 5000 cells per well in 384-well plates, respectively. Cells were cultured in Dulbecco's modified Eagle's medium with 10% FBS for 24 h at 37 °C, 5% CO2. A dilution series of compounds was added, with the highest concentration of 100 μM. […] After 24 h incubation with the compounds, 5 μM resazurin was added into each well and incubated at 37 °C for 2 h. As a negative control, 1% Triton X-100 was added into the culture media to lyse all of the cells. The fluorescence intensity was read using Polarstar Omega with excitation/emission 560/590 nm. Data were analysed with GraphPad Prism 6 software (La Jolla, California USA) to calculate CC50 values.

[2] = system: C. difficile NAP1/027 (ATCC BAA-1803); experiment: Broth microdilution MIC assay, C. difficile NAP1/027; format: cell-based, Clostridium difficile; conditions: Clostridioides difficile, ATCCBAA1803; strain NAP1/027
Protocol: Clostridium difficile strains (630, ATCC BAA-1382 and NAP1/027, ATCC BAA-1803) were maintained as previously described. The minimum inhibition concentration (MIC) was determined according to the CLSI Methods with modifications in broth and inoculum for C. difficile, [25], [26]. Briefly, compounds and control antibiotics were serially diluted two-fold in 96-well plates (Non-binding surface, Corning). The plates were placed in a Coy anaerobic chamber (5% H2, 10% CO2, 85% N2) overnight to reduce the medium. C. difficile bacteria from BHIS(TA) agar plates were cultured anaerobically in BHIS at 37 °C overnight. […]. Compound concentration ranged from 64 to 0.03 μg/mL. An antibiotic standard, a positive growth control (no compound) and a sterility control (no bacteria) were included on each 96 well plate. Plates were covered and incubated at 37 °C for 24 h. MICs for each strain were determined as the lowest concentration without visible growth. Variance between replicates was typically within one 2-fold dilution. Median MICs are reported with a range given when the median MIC was between two tested concentrations.

G. lamblia 713M3 (MtzR) = experiment: ATP-bioluminescence growth/survival EC50 assay, G. lamblia 713M3; format: cell-based, Giardia lamblia
Protocol: as §1

[3] = system: C. difficile 630 (ATCC BAA-1382); experiment: Broth microdilution MIC assay, C. difficile 630; format: cell-based, Clostridium difficile; conditions: Clostridioides difficile, ATCCBAA1382
Protocol: Clostridium difficile strains (630, ATCC BAA-1382 and NAP1/027, ATCC BAA-1803) were maintained as previously described. The minimum inhibition concentration (MIC) was determined according to the CLSI Methods with modifications in broth and inoculum for C. difficile, [25], [26]. Briefly, compounds and control antibiotics were serially diluted two-fold in 96-well plates (Non-binding surface, Corning). […] C. difficile bacteria from BHIS(TA) agar plates were cultured anaerobically in BHIS at 37 °C overnight. […] An antibiotic standard, a positive growth control (no compound) and a sterility control (no bacteria) were included on each 96 well plate. Plates were covered and incubated at 37 °C for 24 h. MICs for each strain were determined as the lowest concentration without visible growth. […] Median MICs are reported with a range given when the median MIC was between two tested concentrations.

[4] = Resazurin cytotoxicity assay, HEK293; format: cell-based, Human; conditions: human, 24 h, highest concentration 100 μM, n = 3, read-out: CC50 HEK 293
Protocol: as §2

[5] = read-out: EC50 E. histolytica HM1:IMSS
[6] = read-out: pEC50 ± SE E. histolytica HM1:IMSS (converted)
[7] = read-out: EC50 G. lamblia WB, MtzS strain WB, minimum n = 3
[8] = read-out: pEC50 ± SE G. lamblia WB, MtzS strain WB (converted)
[9] = Trichomonas vaginalis, read-out: EC50 T. vaginalis F1623, MtzS, minimum n = 3
[10] = Trichomonas vaginalis, read-out: pEC50 ± SE T. vaginalis F1623, MtzS (converted)
[11] = Giardia duodenalis, read-out: EC50 G. lamblia 713M3, MtzR strain 713M3, minimum n = 3
[12] = Giardia duodenalis, read-out: pEC50 ± SE G. lamblia 713M3, MtzR strain 713M3 (converted)
[13] = strain 630, MtzS, median of n = 4, read-out: MIC C. difficile 630
[14] = read-out: EC50 G. lamblia 713M3, MtzR strain 713M3, minimum n = 3

| Compound | EC50 (E. histolytica HM1:IMSS; [5]) [nM] | EC50 (E. histolytica HM1:IMSS; [6]) [nM] | EC50 (G. lamblia WB (MtzS); [7]) [nM] | EC50 (G. lamblia WB (MtzS); [8]) [nM] | S.I (CC50/EC50) (G. lamblia WB (MtzS)) | EC50 (T. vaginalis F1623; [9]) [nM] | EC50 (T. vaginalis F1623; [10]) [nM] | CC50 at 24 h [1] [nM] | MIC [2] [µg/mL] | EC50 (G. lamblia 713M3 (MtzR); [11]) [nM] | EC50 (G. lamblia 713M3 (MtzR); [12]) [nM] | MIC [3, 13] [µg/mL] | CC50 at 24 h [4] [nM] | CC50 at 24 h ([1]; HepG2 cells) [nM] | EC50 (G. lamblia 713M3 (MtzR); [14]) [nM] | CC50 at 24 h ([4]; HEK293 cells) [nM] | EC50 (T. vaginalis F1623; read-out: EC50 T. vaginalis F1623, MtzS, minimum n = 3) [nM] | MIC ([3]; 630 and NAP1/027 strains together or strain not given, read-out: MIC C. difficile) [µg/mL] |
| --- | --- | --- | --- | --- | --- | --- | --- | --- | --- | --- | --- | --- | --- | --- | --- | --- | --- | --- |
| O=C(NCc1cccc(OC(F)(F)F)c1)c1ncc([N+](=O)[O-])[nH]1 [Compound 12c, 5-nitro-N-(3-(trifluoromethoxy)benzyl)-1H-imidazole-2-carboxamide] | 3600 | 3630 | 200 | 200 | >500 | 1900 | 1910 | > 100000 | 16 (≈ 48.5 µM) | 15000 | 14800 | 16 (≈ 48.5 µM) | > 100000 |  |  |  |  |  |
| CC(NC(=O)c1ncc([N+](=O)[O-])[nH]1)c1ccc(F)cc1 (stereo not drawn) [Compound 12d, N-(1-(4-fluorophenyl)ethyl)-5-nitro-1H-imidazole-2-carboxamide] | 1700 | 1700 | 400 | 398 | >250 | 600 | 589 |  | 8 (≈ 28.8 µM) | ≤ 2500 | 1260 | 8 (≈ 28.8 µM) |  | > 100000 | 1300 | > 100000 |  |  |
| Cc1ccc(CCNC(=O)c2ncc([N+](=O)[O-])[nH]2)cc1 [Compound 12e, N-(4-methylphenethyl)-5-nitro-1H-imidazole-2-carboxamide] | 2100 | 2090 | 100 to 600 | 100 | >1000 | 1200 to 2300 | 1200 |  | 8 (≈ 29.2 µM) | ≤ 2500 | 1350 | 8 (≈ 29.2 µM) |  | > 100000 | 1400 | > 100000 | 1200 | 4 to 16 (≈ 14.6 to 58.3 µM) |
| O=C(NCc1ccccn1)c1ncc([N+](=O)[O-])[nH]1 [Compound 12f, 5-nitro-N-(pyridin-2-ylmethyl)-1H-imidazole-2-carboxamide] | 15000 | 15100 | 7200 | 7240 | >14 | 7100 | 7080 |  | 2 (≈ 8.09 µM) | > 20000 | > 20000 | 2 (≈ 8.09 µM) |  | > 100000 |  | > 100000 |  |  |
| CN(C)C(=O)c1ncc([N+](=O)[O-])[nH]1 [Compound 12g, N,N-dimethyl-5-nitro-1H-imidazole-2-carboxamide] | 2700 | 2690 | 8300 | 8320 | >12 | 2400 | 2340 |  | 2 (≈ 10.9 µM) | > 20000 | > 20000 | 2 (≈ 10.9 µM) |  | > 100000 |  | > 100000 |  |  |

— paper PMC4920673, “Nitroimidazole carboxamides as antiparasitic agents targeting Giardia lamblia, Entamoeba histolytica and Trichomonas vaginalis” (European Journal of Medicinal Chemistry, 2016)
